The values below come from patent US4278687A, “Inhibition of biosynthesis of triglycerides by certain N-β-phenethyl-N-thienylalkylamines” (Shell Oil Company, priority 1980, dated 1981).

The test system of this experiment is enzyme from pig adipose tissue (synthesis of triglycerides). The experiment can be described thus: Inhibition of triglyceride synthesis by enzyme preparation from pig adipose tissue (14C-glycerol-3-phosphate incorporation). The following applies: test compound 1000 micrograms per milliliter, 5% DMSO, 8 minutes at 37° C; compared to controls without test compound; average of two animals. In kind it is biochemical. As for the experimental part:
An enzyme was prepared by homogenizing one gram of slices from pig adipose tissue, each slice being approximately 0.3 mm thick, in one-milliliter portions of a liquid medium (Liquid A). The homogenate then was centrifuged (10.000 g×15 minutes), and the supernatant phase (the enzyme) was poured through cheesecloth to remove fat that had risen to the top of the centrifuge tubes.
Liquid A had the following composition (in water):
0.15 M potassium chloride, 1 mM ethylenediaminetetracetic acid, […] Hepes (N-2-hydroxyethylpiperazine-N'-2-ethanesulfonic acid), 1 mM DTT (dithiothreitol), pH=7.0.
A solution of the test compound (Liquid B) was prepared: 10 milligrams of test compound plus 0.5 milliliter dimethylsulfoxide (DMSO) plus 1.83 milliliters of glass-distilled water.
A premix (Liquid C) was freshly prepared before each test, from the following components:
0.163 milliliter of Liquid B (containing the test compound, or for comparison omitting the test compound) was mixed with 0.1 milliliter of Liquid C, 0.05 milliliter of a solution of L-[U-^14 C] glycerol-3-phosphate (containing 5 microcuries of ^14 C per milliliter), 0.01 milliliter of 0.8 M potassium phosphate (pH=7.4), 0.07 milliliter of 0.2 M glycerol-3-phosphate (pH=7.4) and 0.047 milliliter of water. 0.25 milliliter of enzyme then was added. The final concentrations of DMSO and test compound were 5% and 1000 micrograms per milliliter, respectively. The mixture was incubated for 8 minutes at 37° C. A blank control without enzyme was incubated under the same conditions. Then, 3 milliliters of a 1:2 (v/v) mixture of chloroform and methanol was added and thoroughly mixed to terminate the reaction. After 10 minutes, 2 milliliters of chloroform and 1 milliliter of 0.1 N hydrochloric acid were added to the stirred mixture. The mixture was then centrifuged (275 g) for 5 minutes at room temperature. The top layer of the sample was siphoned off. Two milliliters of 0.1 N hydrochloric acid in 50% methanol/water was added, the mixture was centrifuged (275 g) and the top layer was carefully siphoned off. The resulting liquid (the chloroform phase) was transferred to a liquid scintillation vial and air dried. Ten milliliters of a 2:1 (v/v) mixture of toluene and Triton X-100 containing 0.27% New England Nuclear Omnifluor was added, and the radioactivity was determined in a liquid scintillation counter.
Three replicates (samples of enzyme) were conducted per experiment (per animal). The results were reported as the average of the values obtained from the adipose tissue from two experiments (i.e., two different animals).
The percent inhibition by the test compound compared to the controls (no test compound) was determined.

For `CC(NCCC(c1ccccc1)c1ccsc1)C(O)c1ccccc1.Cl` (stereo not drawn) [Compound 1, alpha-(1-(3-phenyl-3-(3-thienyl)propylamino)ethyl)-benzenemethanol, hydrochloride], the “Percent Inhibition” value was 94.
Take `Cl.OC(CNCC=C(c1ccsc1)c1ccsc1)c1cccc(C(F)(F)F)c1` (stereo not drawn) [Compound 2, alpha-((3,3-di-3-thienyl-2-propenylamino)methyl)-3-(trifluoromethyl)benzenemethanol, hydrochloride]: the “Percent Inhibition” value worked out at 101.
The result for `CC(NCC=C(c1ccsc1)c1ccsc1)C(O)c1ccccc1.Cl` (stereo not drawn) [Compound 3, alpha-(1-(3,3-di-3-thienyl-2-propenylamino)ethyl)-benzenemethanol, hydrochloride] reads 97; that for `Cl.OC(CNCCC(O)(c1ccccc1)c1ccsc1)c1ccc(Cl)cc1` (stereo not drawn) [Compound 4, alpha-(2-(2-(4-chlorophenyl)-2-hydroxyethylamino)-ethyl)-alpha-phenyl-3-thiophenemethanol, hydrochloride], 94.
Then `CC(C)c1ccc(C(=CCNC(C)C(O)c2ccccc2)c2ccsc2)cc1.Cl` (stereo not drawn) [Compound 5, alpha-(1-(3-(4-(1-methylethyl)-phenyl)-3-(3-thienyl)-2-propenylamino)ethyl)benzenemethanol, hydrochloride], with 96.
